Assay results as given in patent US20260021092A1, “STRUCTURE-BASED DESIGN OF A NOVEL CLASS OF DRUGS FOR NEURODEGENERATIVE DISEASE” (The Regents of the University of California, priority 2022, published 2026).

Columns and labels:
[1] = molecular target: T1, alpha-synuclein aggregates (Homo sapiens, UniProt P37840); test: Alpha-synuclein aggregation in DDP1 C. elegans; assay type: in vivo; conditions: for soluble versus insoluble alpha-synuclein in worm homogenate by Western blot: 100 μM on plates; for number of alpha-synuclein aggregates in the head region: 100 μM on plates from L1, day 6 of adulthood
T1 construct: host or cells: transgenic C. elegans strain DDP1 (unc-54 promoter)
Excerpt: The DDP1 C. elegans strain overexpresses alpha-synuclein fused with yellow fluorescent protein (YFP) and cyan fluorescent protein (CFP)^22,23. FRET-positive fluorescent alpha-synuclein aggregates can then be visualized and quantified in the adult worms. […] PBS was used as a vehicle control. At day 6 of adulthood, the worms were visualized, and the number of aggregates were quantified by fluorescent microscopy. […] Treated worms were also homogenized for protein analysis by Western blot. Homogenate for each experimental condition was separated into insoluble pellet fractions (P) and soluble supernatant (S) fractions. For untreated worm homogenate, the majority of alpha-synuclein is found in the insoluble pellet.
For C. elegans experiments, the same protocol was used, except following the treatment period worms were harvested, flash frozen, then homogenized for protein extraction. The membrane was washed with TBST overnight before repeating the Western blot analysis for beta-actin (primary antibody anti-beta-actin (C4) (Santa Cruz Biotechnology, cat #sc-47778, lot #J1119; 1:500 dilution in 5% milk/TBST); horseradish peroxidase-conjugated secondary antibody (goat polyclonal anti-mouse IgG (Abcam; cat #ab205719, lot #GR3271082-2); 1:5000 dilution in 5% milk/TBST).
The DDP1 (uonExl [unc-54::αSyn::CFP+unc-54::αSyn::YFP(Venus)]) strain was acquired from the Caenorhabditis Genetics Center (CGC) and used for experiments. C. elegans were grown and maintained using standard conditions. Worms were synchronized using hypochlorite bleaching, hatched ovemight in M9 media (5 g/l NaCl, 6 g/l Na2HPO4, 3 g/l KH2PO4, […]) at 17° C., then cultured on plates with nematode growth medium (NGI; 17 g/l agar, 2.5 g/l peptone, 3 g/l NaCl 1 mM CaCl2, 1 mM MgSO4, 25 mM KH2PO4 pH 6, 5 μg/ml cholesterol) seeded with OP50 E. coli. Strains were maintained at 17° C. […] Treatment plates were then seeded with heat treated OP50 (30 min at 65° C.), according to the “NGM dead” method as previously published^36. Synchronized L1 worms were then added to the treatment plates and grown for 7 days. PBS was used as a control condition. 75 μM FUDR was added on the third day of growth. For imaging, worms were mounted onto 5% agar pads on glass slides, immobilized with 1% NaN3 solution, and imaged by fluorescent microscopy (GFP channel) using a ZEISS Axio Observer D1 fluorescence microscope. Alpha-synuclein aggregates in the head region were quantified.

[2] = molecular target: T2, MSA brain-derived alpha-synuclein fibrils (Homo sapiens, UniProt P37840); test: EM quantification of MSA brain-derived alpha-synuclein fibrils; assay type: biochemical; conditions: incubated for 3 days, compared to control
T2 construct: Extraction of sarkosyl-insoluble alpha-synuclein fibrils from neuropathologically confirmed brain samples of patients diagnosed with MSA; from tissue; host or cells: post-mortem MSA patient brain
Experimental: Post-mortem alpha-synuclein fibrils were extracted and purified from the brain of a patient with MSA. The presence of fibrils in the extract was confirmed by electron microscopy (FIG. 3a). […] As with the recombinant fibrils, we next aimed to quantitatively assess brain-derived fibril disaggregation by EM. Compounds were incubated with MSA fibrils for 3 days, and fibrils were quantified by EM daily, with 10-15 images taken per experimental replicate.
For all transmission electron microscopy (TEM), 6 μL of sample were added onto 400 mesh Formvar Carbon film copper mesh grids (Electron Microscopy Sciences), then incubated for four minutes. 6 μL of 2% uranyl acetate solution was then used to stain the grids. After 2 minutes, excess solution was blotted off and grids were left to dry for a minimum of 30 minutes. TEM images were taken on a Tecnai 12 transmission electron microscope. For quantitation of fibrils, n=20 TEM images were taken per experimental condition from random points throughout the grid. Fibril counts were manually quantified per image in a blinded fashion.
Compounds were incubated quiescently with fibril samples (both recombinant and brain-derived) for 72 hours at 37° C. […]

[3] = Brain penetration in mice (LC-MS/MRM of plasma and brain); assay type: in vivo, C57BL/6J mice; conditions: 0.5 mg/kg tail vein injection, 1 hour after dosing, range of n=3; for concentration at 1 h: C57BL/6J, mouse, plasma, intravenous
Experimental: The compounds were administered by tail vein injection at a dose of 0.5 mg/kg of body weight to C57BL/6J mice (n=3 for each compound). […] To detect and quantify the drugs we used a sensitive, selective, and specific liquid chromatographic/tandem mass spectrometric multiple reaction monitoring (LC-MS/MRM) assay. The sample extraction protocol for plasma and brain was optimized with spiking experiments in which the authentic compounds were added to plasma and brain from drug-naive mice. […] Blood was collected by cardiac puncture and plasma was recovered as the supernatant after centrifugation (3000×g, 10 m) and stored frozen. Brains were collected by standard dissection and immediately frozen. To measure the average drug concentrations across the entire brains each left hemisphere (average wet weight 250 mg) was processed. The samples were spiked with the internal standard (IS, CNS-11F, 15 pmol in 15 μL of acetonitrile) and homogenized with a probe sonicator (Kontes microsonic cell disrupter, 30 sec) after the addition of acetonitrile/water (4:1, v/v, 2500 μL). The homogenates were divided evenly into three polypropylene microcentrifuge tubes (met) for triplicate measurements of each sample. Following centrifugation (16,100g, 5 min), the supernatants were transferred to clean mets and dried in a vacuum centrifuge. The pellets were treated with acetonitrile (25 μL) with vigorous mixing, followed by water (25 μL) with more vigorous mixing, followed by more water (50 μL) for a total volume of 100 μL. The samples were mixed again, centrifuged (16,100g, 5 min) and the supernatants were transferred to HPLC injector vials. […] These samples were processed as described above. Plasma samples (50 μL, in duplicate for each mouse) were spiked with the internal standard (IS, CNS-11F, 5 pmol in 5 μL of acetonitrile), and vigorously mixed after the addition of acetonitrile (500 μL). Following centrifugation (16,100g, 5 min), the supernatants were transferred to clean mcts and dried in a vacuum centrifuge. […] The effluent from the column was directed to an electrospray ion source (Agilent Jet Stream) connected to a triple quadrupole mass spectrometer (Agilent 6460) operating in the positive ion tandem mass spectrometric multiple reaction monitoring (MRM) mode in which the intensity of the transition of preselected parent ions to preselected fragment ions was recorded after signal optimization (collision energy, fragmentor voltage and collision cell accelerator voltage) with instrument manufacturer-supplied software (Mass Hunter). […] Peak areas were integrated and recorded, and a curve was constructed from the data obtained from the standards in which the ratio of drug peak area/IS peak area was plotted against the amount of drug in each sample. […]

Row | Compound | soluble versus insoluble alpha-synuclein in worm homogenate by Western blot [1] | number of alpha-synuclein aggregates in the head region [1] | average number of imaged MSA fibrils [2] | concentration in brain tissue [3] | concentration at 1 h [3] [nM]
1 | Cc1cccc(C)c1NC(=O)Cn1nc(Cc2ccccc2)c2ccccc2c1=O [CNS-11g, 2-(4-benzyl-1-oxophthalazin-2-yl)-N-(2,6-dimethylphenyl)acetamide] | solubilization of the alpha-synuclein | reduction of total aggregates | reduction in average number of imaged fibrils | 4.2-26.1 ng/g of brain | 10.4 to 58.8
2 | Cc1cc(C)c(NC(=O)Cn2nc3c4c(cccc4c2=O)-c2ccccc2-3)c(C)c1 [CNS-11, N-mesityl-2-(3-oxoindeno[1,2,3-de]phthalazin-2(3H)-yl)acetamide] | solubilization of the alpha-synuclein | reduction of total aggregates | reduction in average number of imaged fibrils | 6.9-21.5 ng/g of brain | 5 to 28.4
